# From US8604055B2, “Substituted benzylamino quinolines as cholesterol ester-transfer protein inhibitors” (Dr. Reddy's Laboratories Ltd., priority 2004, dated 2013)
# pIC50: −log10 of the molar value.
# Columns and labels:
# [1] = biological target: T1, Recombinant CETP enzyme (Homo sapiens, UniProt P11597); test: In vitro fluorescence-based CETP inhibition assay (BODIPY-CE transfer from donor to acceptor microemulsions); type: biochemical; settings: recombinant CETP 0.14 ng/μl; transfer of fluorescent cholesteryl ester monitored over 2 hours; vs DMSO controls
# T1 construct: purchased Cardiovascular Targets
# T1 sequence (P11597 18-493): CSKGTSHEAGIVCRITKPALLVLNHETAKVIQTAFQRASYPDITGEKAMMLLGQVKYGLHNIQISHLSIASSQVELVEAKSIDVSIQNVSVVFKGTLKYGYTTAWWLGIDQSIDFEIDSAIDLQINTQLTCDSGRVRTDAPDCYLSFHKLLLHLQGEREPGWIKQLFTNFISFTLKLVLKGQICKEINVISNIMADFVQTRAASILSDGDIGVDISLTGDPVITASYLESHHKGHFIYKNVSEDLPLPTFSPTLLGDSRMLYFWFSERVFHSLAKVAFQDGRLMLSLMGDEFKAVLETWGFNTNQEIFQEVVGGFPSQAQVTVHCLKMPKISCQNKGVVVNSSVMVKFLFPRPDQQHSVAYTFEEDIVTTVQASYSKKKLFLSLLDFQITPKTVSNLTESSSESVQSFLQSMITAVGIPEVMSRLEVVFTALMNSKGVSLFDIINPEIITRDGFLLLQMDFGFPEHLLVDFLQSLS
# Method: An in vitro fluorescence-based assay to identify CETP inhibitors was developed from modifications of the protocols outlined in Bisgaier et al., J Lipid Res., 34(9): 1625-34 (1993) and Epps et al., Chem Phys Lipids., 77(1): 51-63 (1995). Acceptor and donor lipid microemulsions were prepared according to Bisgaier et al., 1993, except that the buffer was prepared with 0.67 ug/mL human HDL (Calbiochem). Donor microemulsions contained the fluorescent cholesteryl ester analog BODIPY-CE (Molecular Probes), characterized by excitation and emission maxima at 503 nm and 518 nm, respectively. The CETP-mediated transfer of fluorescent cholesteryl ester to acceptor particles was monitored over a 2-hour time period using the FAM filter set (excitation 492 nm, emission 516 nm) in an MX3000P fluorescent plate reader (Stratagene). Recombinant CETP enzyme (Cardiovascular Targets) was used at 0.14 ng/μl, final concentration, to achieve lipid transfer. CETP inhibition by compounds was compared to DMSO controlsand graphed as a percentage of the control CETP activity over 2 hours. The IC50 curves for CETP inhibition were generated from the activity profiles. Active compounds were also tested for CETP inhibition as above, but in the presence of 3% human serum albumin, fraction V (Calbiochem).
SMILES,pIC50 [1],melting point [°C]
"CCN(CC1CCCC1)c1nc2ccccc2cc1CN(Cc1cc(C(F)(F)F)cc(C(F)(F)F)c1)c1nnnn1C [Example 53, (3-{[(3,5-bis-trifluoromethyl-benzyl)-(1-methyl-1H-tetrazol-5-yl)-amino]-methyl}-quinolin-2-yl)-cyclopentylmethyl-ethyl-amine]",≥ 5.30,110
"Cc1nn(C)c2nc(N(CC3CCC3)CC3CC3)c(CN(Cc3cc(C(F)(F)F)cc(C(F)(F)F)c3)c3nnn(C)n3)cc12 [Example 5, (5-{[(3,5-bis-trifluoromethyl-benzyl)-(2-methyl-2H-tetrazole-5-yl)-amino]-methyl}-1,3-dimethyl-1H-pyrazolo[3,4-b]pyridin-6-yl)-cyclobutylmethyl-cyclopropylmethyl-amine]",≥ 6.00,84 to 85
Cc1cccc2cc(CN(Cc3cc(C(F)(F)F)cc(C(F)(F)F)c3)c3nnn(C)n3)c(N(CC3CC3)CC3CC3)nc12 [Example 57],≥ 6.00,63
"CCC[S+]([O-])c1nc2c(C)cccc2cc1CN(Cc1cc(C(F)(F)F)cc(C(F)(F)F)c1)C(=O)OCC (centres unmarked) [Example 137, (3,5-bis-trifluoromethyl-benzyl)-[8-methyl-2-(propane-1-sulfinyl)-quinolin-3-ylmethyl]-carbamic acid ethyl ester]",–,86
"CCN(CC1CCCC1)c1nc2ccccc2cc1CN(Cc1cc(C(F)(F)F)cc(C(F)(F)F)c1)C(N)=O [Example 59, 1-(3,5 bistrifluoromethyl-benzyl)-1-[(2-cyclopentylmethyl-ethyl-amino)-quinoline-3-ylmethyl]-urea]",≥ 5.30,92 to 94
CCN(CC1CCCC1)c1nc2ccccc2cc1CN(Cc1cc(C(F)(F)F)cc(C(F)(F)F)c1)c1nnn(C)n1 [Example 52],≥ 6.00,97
CCOC(=N)N(Cc1cc(C(F)(F)F)cc(C(F)(F)F)c1)Cc1cc2ccccc2nc1N(CC)CC1CCCC1 [Example 61],≥ 5.30,158 to 160
"CCN(CC1CCCC1)c1nc2c(cc1CN(Cc1cc(C(F)(F)F)cc(C(F)(F)F)c1)c1nc(C(F)(F)F)co1)c(C)nn2C [Example 22, (5-{[(3,5-bis-trifluoromethyl-benzyl)-(4-trifluoromethyl-oxazol-2-yl)-amino]-methyl}-1,3-dimethyl-1H-pyrazolo[3,4-b]-pyridin-6-yl)-cyclopentylmethyl-ethyl-amine]",≥ 6.00,139
"CCN(c1nc2c(cc1CN(Cc1cc(C(F)(F)F)cc(C(F)(F)F)c1)c1nnn(C)n1)c(C)nn2C)C1CCCC1 [Example 8, (5-{[(3,5-bis-trifluoromethyl-benzyl)-(2-methyl-2H-tetrazole-5-yl)-amino]-methyl}-1,3-dimethyl-1H-pyrazolo[3,4-b]pyridin-6-yl)-cyclopentyl-ethyl-amine]",≥ 6.00,43 to 44
"CCN(CC1CCC1)c1nc2c(cnn2CC)cc1CN(Cc1cc(C(F)(F)F)cc(C(F)(F)F)c1)c1nnn(C)n1 [Example 15, (5-{[(3,5-bis-trifluoromethyl-benzyl)-(2-methyl-2H-tetrazol-5-yl)-amino]-methyl}-1-ethyl-1H-pyrazolo[3,4-b]-yridin-6-yl)-cyclobutylmethyl-ethyl-amine]",≥ 6.00,76 to 77
"CCN(CC1CCCC1)c1nc2ccccc2cc1CN(Cc1cc(C(F)(F)F)cc(C(F)(F)F)c1)C(N)=S [Example 62, 1-(3,5-bis-trifluoromethyl-benzyl)-1-[2-(cyclopentylmethyl-ethyl-amino)-quinolin-3-ylmethyl]-thiourea]",–,98
"CCN(CC1CCCC1)c1nc2ccccc2cc1CN(Cc1cc(C(F)(F)F)cc(C(F)(F)F)c1)c1nnc(C)o1 [Example 58, (3-{[(3,5-bis-trifluoromethyl-benzyl)-(5-methyl-[1,3,4]oxodiazol-2-yl)-amino]-methyl)-quinolin-2-yl)-cyclopentylmethyl-ethyl-amine]",≥ 5.30,126 to 127
"CCOC(=O)c1c(CN(Cc2cc(C(F)(F)F)cc(C(F)(F)F)c2)c2nnn(C)n2)c2ccccc2n1C [Example 125, 3-{[(3,5-bis-trifluoromethyl-benzyl)-(2-methyl-2H-tetrazol-5-yl)-amino]-methyl}-1-methyl-1H-indole-2-carboxylic acid ethyl ester]",–,83
"Cc1cccc2cc(CN(Cc3cc(C(F)(F)F)cc(C(F)(F)F)c3)c3ncc(N4CCOCC4)cn3)c(N(CC3CC3)CC3CC3)nc12 [Example 106, (3-{[(3,5-bis-trifluoromethyl-benzyl)-(5-morpholin-4-yl-pyrimidin-2-yl)-amino]-methyl}-8-methyl-quinolin-2-yl)-bis-cyclopropylmethyl-amine]",–,123 to 124
"CCN(CC(C)(C)C)c1nc2c(cc1CN(Cc1cc(C(F)(F)F)cc(C(F)(F)F)c1)c1nnn(C)n1)c(C)nn2C [Example 6, (5-{[(3,5-bis-trifluoromethyl-benzyl)-(2-methyl-2H-tetrazole-5-yl)-amino]-methyl}-1,3-dimethyl-1H-pyrazolo[3,4-b]pyridin-6-yl)-(2,2-dimethyl-propyl)-ethyl-amine]",≥ 6.00,72 to 73
